# Read-outs that look alike come from different tables or passages of the source.
# Key:
# [1] = test system: NDM-1 K. pneumoniae XJ155019; assay: MIC, broth microdilution; assay type: cell-based; conditions: Klebsiella pneumoniae, 16 h
# Description: (§1) MIC values were identified through microdilution in sterilized 96-well polypropylene microtiter plates according to the broth microdilution guideline of the Clinical and Laboratory Standards Institute[30]. The test medium was Mueller–Hinton broth (MHB), and the strain concentrations were adjusted to 5 × 10^5 CFU/mL.
# [2] = test system: E. coli ATCC35218; assay: MIC, broth microdilution; assay type: cell-based; conditions: Escherichia coli
# Description: as §1
# [3] = test system: K. pneumoniae ATCC13883; assay: MIC, broth microdilution; assay type: cell-based; conditions: Klebsiella pneumoniae
# Description: as §1
# [4] = test system: NDM-1 E. coli XJ141026; assay: MIC, broth microdilution; assay type: cell-based; conditions: Escherichia coli, 16 h
# Description: as §1
# [5] = test system: NDM-1 K. pneumoniae XJ155018; assay: MIC, broth microdilution; assay type: cell-based; conditions: Klebsiella pneumoniae, 16 h
# Description: as §1
# [6] = test system: NDM-1 E. coli XJ141015; assay: MIC, broth microdilution; assay type: cell-based; conditions: Escherichia coli, 16 h
# Description: as §1
# [7] = test system: NDM-1 E. coli XJ141047; assay: MIC, broth microdilution; assay type: cell-based; conditions: Escherichia coli, 16 h
# Description: as §1
# [8] = test system: NDM-1 K. pneumoniae XJ155020; assay: MIC, broth microdilution; assay type: cell-based; conditions: Klebsiella pneumoniae, 16 h
# Description: as §1
# [9] = test system: NDM-1 K. pneumoniae XJ155017; assay: MIC, broth microdilution; assay type: cell-based; conditions: Klebsiella pneumoniae, 16 h
# Description: as §1
# [10] = test system: E. coli ATCC25922; assay: MIC, broth microdilution; assay type: cell-based; conditions: Escherichia coli
# Description: as §1
# [11] = biological target: NDM-1 (Klebsiella pneumoniae, UniProt C7C422); assay: Zn2+ restoration assay; assay type: biochemical
# NDM-1, sequence (C7C422 20-270, looked up, natural form): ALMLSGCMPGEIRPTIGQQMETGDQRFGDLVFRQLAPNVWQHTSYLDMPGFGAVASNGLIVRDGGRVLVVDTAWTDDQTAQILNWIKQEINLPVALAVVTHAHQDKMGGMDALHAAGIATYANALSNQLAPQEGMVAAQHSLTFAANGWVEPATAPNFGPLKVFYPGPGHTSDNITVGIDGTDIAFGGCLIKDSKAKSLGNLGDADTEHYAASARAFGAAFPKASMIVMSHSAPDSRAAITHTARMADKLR
# Method: After incubating for 20 min at 30 °C, 50 μL of the mixture was added to the 96-well plate. […] The absorbance at 300 nm was monitored for 30 min at 30 °C. Percent residual activity was calculated from the thanatin-free control.
# [12] = test system: NDM-1 K. pneumoniae XJ155019; assay: Antibiotic susceptibility (MIC), automated identification system; assay type: cell-based; conditions: Supplementary Table 2
# Description: (§2) Clinical isolate strains were identified and screened by the Phoenix 100 automated bacterial identification system to rapidly detect antimicrobial resistance. Total DNA was extracted by the TIANamp Bacteria DNA Kit according to the manufacturer’s protocol. The presence of blaNDM-1 was confirmed using a diagnostic kit for NDM-1 (Puruikang Bio Inc., Shenzhen, China) based on fluorescent quantitative polymerase chain reaction assay. According to the instruction, Ct values of less than 37 were considered positive.
# [13] = test system: K. pneumoniae ATCC13883; assay: as above; assay type: cell-based; conditions: Supplementary Table 2
# Description: as §2
# [14] = test system: NDM-1 E. coli XJ141026; assay: as above; assay type: cell-based; conditions: Supplementary Table 1
# Description: as §2
# [15] = test system: NDM-1 K. pneumoniae XJ155018; assay: as above; assay type: cell-based; conditions: Supplementary Table 2
# Description: as §2
# [16] = test system: NDM-1 E. coli XJ141015; assay: as above; assay type: cell-based; conditions: Supplementary Table 1
# Description: as §2
# [17] = test system: NDM-1 E. coli XJ141047; assay: as above; assay type: cell-based; conditions: Supplementary Table 1
# Description: as §2
# [18] = test system: NDM-1 K. pneumoniae XJ155020; assay: as above; assay type: cell-based; conditions: Supplementary Table 2
# Description: as §2
# [19] = test system: NDM-1 K. pneumoniae XJ155017; assay: as above; assay type: cell-based; conditions: Supplementary Table 2
# Description: as §2
# [20] = test system: E. coli ATCC25922; assay: as above; assay type: cell-based; conditions: Supplementary Table 1
# Description: as §2
# [21] = MHB, 5 × 10^5 CFU/mL, 37 °C, read-out: MIC
smiles,measurement,setting,value
Cc1onc(-c2ccccc2)c1C(=O)N[C@@H]1C(=O)N2[C@@H]1SC(C)(C)[C@@H]2C(=O)O [Oxacillin],MIC,[1]; [21],> 256 µg/mL
same,MIC,"[2]; ATCC35218, MHB, 5 × 10^5 CFU/mL, 16 h, 37 °C, read-out: MIC",256 µg/mL
same,MIC,"[3]; ATCC13883, MHB, 5 × 10^5 CFU/mL, 16 h, 37 °C, read-out: MIC",64 µg/mL
same,MIC,[4]; [21],> 256 µg/mL
same,MIC,[5]; [21],> 256 µg/mL
same,MIC,[6]; [21],> 256 µg/mL
same,MIC,[7]; [21],> 256 µg/mL
same,MIC,[8]; [21],> 256 µg/mL
same,MIC,[9]; [21],> 256 µg/mL
same,MIC,"[10]; ATCC25922, MHB, 5 × 10^5 CFU/mL, 16 h, 37 °C, read-out: MIC",64 µg/mL
O=S(=O)([O-])[O-].[Zn+2] [ZnSO4],NDM-1 residual activity %,"[11]; ZnSO4 0.1 μM, replicate 1",15.22%
same,NDM-1 residual activity %,"[11]; ZnSO4 0.1 μM, replicate 2",16.97%
same,NDM-1 residual activity %,"[11]; ZnSO4 0.1 μM, replicate 3",15.04%
same,NDM-1 residual activity %,"[11]; ZnSO4 1 μM, replicate 1",27.47%
same,NDM-1 residual activity %,"[11]; ZnSO4 1 μM, replicate 2",23.22%
same,NDM-1 residual activity %,"[11]; ZnSO4 1 μM, replicate 3",15.46%
same,NDM-1 residual activity %,"[11]; ZnSO4 5 μM, replicate 1",28.32%
same,NDM-1 residual activity %,"[11]; ZnSO4 5 μM, replicate 2",25.17%
same,NDM-1 residual activity %,"[11]; ZnSO4 5 μM, replicate 3",26.96%
same,NDM-1 residual activity %,"[11]; ZnSO4 10 μM, replicate 1",32.34%
same,NDM-1 residual activity %,"[11]; ZnSO4 10 μM, replicate 2",29.63%
same,NDM-1 residual activity %,"[11]; ZnSO4 10 μM, replicate 3",36.06%
same,NDM-1 residual activity %,"[11]; ZnSO4 50 μM, replicate 1",43.28%
same,NDM-1 residual activity %,"[11]; ZnSO4 50 μM, replicate 2",51.47%
same,NDM-1 residual activity %,"[11]; ZnSO4 50 μM, replicate 3",61.34%
same,NDM-1 residual activity %,"[11]; ZnSO4 100 μM, replicate 1",56.06%
same,NDM-1 residual activity %,"[11]; ZnSO4 100 μM, replicate 2",59.92%
same,NDM-1 residual activity %,"[11]; ZnSO4 100 μM, replicate 3",88.19%
same,NDM-1 residual activity %,"[11]; ZnSO4 200 μM, replicate 1",61.18%
same,NDM-1 residual activity %,"[11]; ZnSO4 200 μM, replicate 2",100.32%
same,NDM-1 residual activity %,"[11]; ZnSO4 200 μM, replicate 3",93.90%
same,NDM-1 residual activity %,"[11]; ZnSO4 400 μM, replicate 1",95.69%
same,NDM-1 residual activity %,"[11]; ZnSO4 400 μM, replicate 2",105.75%
same,NDM-1 residual activity %,"[11]; ZnSO4 400 μM, replicate 3",98.26%
same,NDM-1 residual activity %,"[11]; ZnSO4 800 μM, replicate 1",94.91%
same,NDM-1 residual activity %,"[11]; ZnSO4 800 μM, replicate 2",111.23%
same,NDM-1 residual activity %,"[11]; ZnSO4 800 μM, replicate 3",106.26%
CO/N=C(\C(=O)N[C@@H]1C(=O)N2C(C(=O)O)=C(COC(C)=O)CS[C@H]12)c1csc(N)n1 [Cefotaxime],MIC,[1],> 256 µg/mL
same,MIC,"[2]; ATCC35218, 16 h",< 0.125 µg/mL
same,MIC,"[3]; ATCC13883, 16 h",< 0.125 µg/mL
same,MIC,[4],> 256 µg/mL
same,MIC,[5],> 256 µg/mL
same,MIC,[6],> 256 µg/mL
same,MIC,[7],> 256 µg/mL
same,MIC,[8],> 256 µg/mL
same,MIC,[9],> 256 µg/mL
same,MIC,"[10]; ATCC25922, 16 h",< 0.125 µg/mL
same,MIC,[12]; Klebsiella pneumoniae,> 32 µg/mL
same,susceptibility class (MIC),[12],R
same,MIC,"[13]; Klebsiella pneumoniae, ATCC13883",≤ 1 µg/mL
same,susceptibility class (MIC),[13],S
same,MIC,[14]; Escherichia coli,> 32 µg/mL
same,susceptibility class (MIC),[14],R
same,MIC,[15]; Klebsiella pneumoniae,> 32 µg/mL
same,susceptibility class (MIC),[15],R
same,MIC,[16]; Escherichia coli,> 32 µg/mL
same,susceptibility class (MIC),[16],R
same,MIC,[17]; Escherichia coli,> 32 µg/mL
same,susceptibility class (MIC),[17],R
same,MIC,[18]; Klebsiella pneumoniae,> 32 µg/mL
same,susceptibility class (MIC),[18],R
same,MIC,[19]; Klebsiella pneumoniae,> 32 µg/mL
same,susceptibility class (MIC),[19],R
same,MIC,"[20]; Escherichia coli, ATCC25922",≤ 1 µg/mL
same,susceptibility class (MIC),[20],S
